Experimental data: PMC5986547 (Heliyon, 2018)
Where two headings read alike, the source gives them in different places.

Tests used:
hNET [1] = biological target: T1, hNET (Homo sapiens, UniProt P23975); assay: Reuptake inhibition assay, [3H]NE, plated hNET-HEK293 cells; format: cell-based
rNET [2] = biological target: T2, rNET (Rattus norvegicus, UniProt Q63380); details: read-out: Ki, reuptake inhibition, rNET, synaptosomes; cited from earlier work
rNET [3] = biological target: T2, rNET; format: biochemical; details: read-out: IC50, rNET, synaptosomes (in parentheses, converted from Ki)
hNET [4] = biological target: T1, hNET; format: cell-based
hNET [5] = biological target: T1, hNET; details: read-out: IC50, reuptake inhibition, hNET-HEK293 cells; mean ± S.E.M.; cell suspensions; cited from earlier work
SK-N-BE(2)C cells = assay: Uptake kinetics of [3H]NE by adherent SK-N-BE; format: cell-based, human; details: RT, 24-well plates, 163 μg of protein/well, mean ± S.E.M., N = 3

T1 sequence (P23975 whole entry): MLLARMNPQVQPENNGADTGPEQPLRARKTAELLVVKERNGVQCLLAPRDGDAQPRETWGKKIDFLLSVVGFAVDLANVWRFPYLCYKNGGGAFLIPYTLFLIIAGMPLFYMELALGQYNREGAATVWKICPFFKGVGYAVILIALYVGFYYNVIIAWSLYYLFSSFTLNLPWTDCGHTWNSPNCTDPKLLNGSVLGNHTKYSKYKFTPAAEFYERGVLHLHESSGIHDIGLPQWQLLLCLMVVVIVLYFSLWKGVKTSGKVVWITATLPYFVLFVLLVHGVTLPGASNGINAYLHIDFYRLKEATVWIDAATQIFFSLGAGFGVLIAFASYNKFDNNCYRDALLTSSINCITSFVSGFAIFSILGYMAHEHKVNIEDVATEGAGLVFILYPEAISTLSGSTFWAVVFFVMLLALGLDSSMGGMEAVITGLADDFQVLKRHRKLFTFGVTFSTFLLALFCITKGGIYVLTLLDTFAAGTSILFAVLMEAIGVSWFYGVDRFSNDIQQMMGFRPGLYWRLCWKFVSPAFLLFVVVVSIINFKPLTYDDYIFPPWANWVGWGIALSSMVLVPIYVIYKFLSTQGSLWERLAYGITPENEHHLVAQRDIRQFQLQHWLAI
T2 sequence (Q63380 1-617): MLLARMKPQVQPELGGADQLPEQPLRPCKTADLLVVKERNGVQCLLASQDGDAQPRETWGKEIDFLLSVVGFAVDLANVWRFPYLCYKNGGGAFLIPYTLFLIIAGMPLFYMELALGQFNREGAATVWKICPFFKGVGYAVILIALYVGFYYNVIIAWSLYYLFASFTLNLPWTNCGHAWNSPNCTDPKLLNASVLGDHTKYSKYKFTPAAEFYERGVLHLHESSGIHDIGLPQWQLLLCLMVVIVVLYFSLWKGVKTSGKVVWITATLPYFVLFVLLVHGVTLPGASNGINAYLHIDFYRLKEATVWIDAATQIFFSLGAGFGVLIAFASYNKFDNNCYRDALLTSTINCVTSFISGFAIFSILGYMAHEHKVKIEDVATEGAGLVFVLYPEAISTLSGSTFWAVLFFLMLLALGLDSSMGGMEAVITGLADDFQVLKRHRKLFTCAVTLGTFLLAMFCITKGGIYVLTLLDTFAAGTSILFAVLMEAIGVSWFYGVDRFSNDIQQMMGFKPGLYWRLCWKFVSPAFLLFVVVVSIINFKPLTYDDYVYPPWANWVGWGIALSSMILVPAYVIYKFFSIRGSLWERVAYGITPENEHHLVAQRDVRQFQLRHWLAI

Fc1ccc(C(OCCN2CCN(CCCc3ccccc3)CC2)c2ccc(F)cc2)cc1 [GBR12909]
activity in hNET-HEK293 cells, in words (hNET [1]): inactive

c1ccc(CCCN2CCN(CCOC(c3ccccc3)c3ccccc3)CC2)cc1 [GBR12935]
Ki (rNET [2]): 277 nM | IC50 (rNET [3]): 299 nM | fold less potent in SK-N-BE(2)C cells than in hNET-HEK293 cells (hNET [4]): 14.8 fold | fold less potent in SK-N-BE(2)C cells than in rat brain synaptosomes (hNET [4]): 11.6 fold | IC50 (hNET [4]; read-out: IC50, reuptake inhibition, hNET, SK-N-BE(2)C cells): 3470 ± 150 nM | IC50 (hNET [5]): 235 ± 53 nM

COC(=O)[C@H]1C(c2ccc(I)cc2)C[C@@H]2CC[C@H]1N2C (stereo partly shown) [RTI-55]
fold less potent in SK-N-BE(2)C cells than in rat brain synaptosomes (hNET [4]; ratio of IC50 values): 6 fold | fold less potent in SK-N-BE(2)C cells than in hNET-HEK293 cells (hNET [4]; ratio of IC50 values, hNET-HEK293 data of ref 8): 14.4 fold | IC50 (hNET [5]): 2.63 ± 0.76 nM

CN1[C@H]2CC[C@@H]1[C@@H](C(=O)N1CCCC1)[C@@H](c1ccc(I)cc1)C2 [RTI-229]
fold less potent in SK-N-BE(2)C cells than in rat brain synaptosomes (hNET [4]; ratio of IC50 values): 38 fold

[3H][C@](O)(CN)c1ccc(O)c(O)c1 [[^3H]NE, [^3H]norepinephrine]
VMAX of [3H]NE uptake (SK-N-BE(2)C cells): 195 ± 13 fmol radioactivity/mg protein/min

NC[C@H](O)c1ccc(O)c(O)c1 [[^3H]NE, [^3H]norepinephrine]
Km (SK-N-BE(2)C cells; read-out: KM of [3H]NE uptake): 0.416 µM
